From US10800788B2, “4-(aryl)-N-(3-alkoxyfuro[2,3-b]pyrazin-2-yl)-piperazine-1-carboxamide derivative and antiproliferative effect thereof” (Dongguk University Industry-Academic Cooperation Foundation, priority 2016, dated 2020) come the findings set out here.

The structures appear in SMILES notation.

The test system of one assay is A549. The experiment in a line: Cell growth inhibition experiment (SRB), A549. In kind it is cell-based. The note with it: Homo sapiens, A549, 96 h, 96 hours incubation, read-out: IC50 (μM) for cancer cell line A549. In outline:
(§1)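 Cells seeded at 2 to 3×10^3 cells/well, grown overnight, then exposed to compound for 96 hours in triplicate. Growth measured by SRB staining with absorbance at 530 nm; OD530 converted to viable cell number via each line's standard curve, survival expressed relative to untreated control.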

For assay [1], the system named is PANC-1 (pancreatic cancer) cell line. The experiment in a line: Cell growth inhibition experiment (SRB), PANC-1. In kind it is cell-based. As to conditions: Homo sapiens, PANC-1, 96 h, 96 hours incubation. The method in brief: (§2)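 Cells in DMEM with 10% FBS were seeded at 2 to 3×10^3 cells/well, dosed the next day and incubated 96 hours at 37° C, 5% CO2. After TCA fixation and sulforhodamine B staining, OD530 was converted to viable cell number with a per-line standard curve. % survival is test over control; triplicate runs.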

In another assay the test system is SK-OV-3. The experiment in a line: Cell growth inhibition experiment (SRB), SK-OV-3. As to conditions: Homo sapiens, SK-OV-3, 96 h, 96 hours incubation, read-out: IC50 (μM) for cancer cell line SK-OV-3. Type of assay: cell-based, human. The method in brief:
as §1

For a further assay, the system named is HEK293. As to the kind of experiment: Cell growth inhibition experiment (SRB), HEK293. In kind it is cell-based, human. As to conditions: Homo sapiens, HEK293, 96 h, 96 hours incubation, read-out: IC50 (μM) for cancer cell line HEK293. The method in brief: as §1
Assay [2] deals with MDA-MB-231 (breast cancer) cell line. The experiment in a line: Cell growth inhibition experiment (SRB), MDA-MB-231. Type of assay: cell-based, human. As to conditions: Homo sapiens, MDA-MB-231, 96 h, 96 hours incubation. In outline: as §2
Assay [3] relates to HN31 (head and neck cancer) cell line. The experiment in a line: Cell growth inhibition experiment (SRB), HN31. As to conditions: Homo sapiens, 96 h, 96 hours incubation. In kind it is cell-based, human. The method in brief:
as §2

The next assay relates to HUVEC. As to the kind of experiment: Cell growth inhibition experiment (SRB), HUVEC. In kind it is cell-based, human. The note with it: Homo sapiens, HUVEC, 96 h, 96 hours incubation, read-out: IC50 (μM) […]. The method in brief:
as §1

A further assay concerns HT29. The experiment in a line: Cell growth inhibition experiment (SRB), HT29. As to conditions: Homo sapiens, HT-29, 96 h, 96 hours incubation, read-out: IC50 (μM) for cancer cell line HT29. Type of assay: cell-based, human. The method in brief:
as §1

For assay [4], the system named is UMRC2 (kidney cancer) cell line. As to the kind of experiment: Cell growth inhibition experiment (SRB), UMRC2. Type of assay: cell-based, human. The note with it: Homo sapiens, UMRC2, 96 h, 96 hours incubation. In outline:
as §2

Broadly, the IC50 is the concentration that inhibits the measured activity by half. Take `COc1cc(OCCN(C)C)cc(N2CCN(C(=O)Nc3nc4cc(Cl)oc4nc3OC)CC2)c1` [Example 44, N-(6-Chloro-3-methoxyfuro[2,3-b]pyrazin-2-yl)-4-(3-(2-(dimethylamino)ethoxy)-5-methoxyphenyl)piperazine-1-carboxamide]: the IC50 in the assay on A549 is 0.36 µM; in assay [1] it was 0.61 µM; with SK-OV-3, less than 2.5 µM; in the assay on HEK293 it was 0.71 µM; in [2] it was 0.43 µM; in assay [3], 0.53 µM. In addition, the figures for the IC50 (with HUVEC; in the assay with HT29; in assay [4]) were 0.66 µM, 0.87 µM and 0.38 µM, respectively.

`CCOc1nc2oc(Cl)cc2nc1NC(=O)N1CCN(c2cc(C(F)(F)F)cc(C(F)(F)F)c2)CC1` [Example 59, 4-(3,5-Bis(trifluoromethyl)phenyl)-N-(6-chloro-3-ethoxyfuro[2,3-b]pyrazin-2-yl)piperazine-1-carboxamide]: the IC50 in the assay with A549 is less than 2.5 µM; in assay [1] it was 1.98 µM; in the assay on SK-OV-3 it was less than 2.5 µM; with HEK293 it was less than 2.5 µM; in assay [2] it was 1.68 µM; in assay [3] it was less than 2.5 µM. For the same compound, the IC50 with HUVEC is less than 2.5 µM; with HT29, less than 2.5 µM; in [4] it was 1.87 µM.

`CCOc1nc2occc2nc1NC(=O)N1CCN(c2cc(F)cc(F)c2)CC1` [Example 17, 4-(3,5-Difluorophenyl)-N-(3-ethoxyfuro[2,3-b]pyrazin-2-yl)piperazine-1-carboxamide]: the IC50 in the assay with A549 was less than 2.5 µM; in [1], less than 2.5 µM; in the assay with SK-OV-3 it was less than 2.5 µM; in the assay with HEK293, less than 2.5 µM; in assay [2], 0.24 µM; in assay [3] it was less than 2.5 µM. The values for the IC50 (in the assay on HUVEC; in the assay on HT29; in assay [4]) were less than 2.5 µM, less than 2.5 µM and 1.65 µM, respectively.

For the compound `CCOc1nc2oc(Cl)cc2nc1NC(=O)N1CCN(c2cc(C)cc(C)c2)CC1` [Example 55, N-(6-Chloro-3-ethoxyfuro[2,3-b]pyrazin-2-yl)-4-(3,5-dimethylphenyl)piperazine-1-carboxamide], the IC50 with A549 was less than 2.5 µM; in assay [1] it was 1.68 µM; in the assay on SK-OV-3, less than 2.5 µM; in the assay on HEK293, less than 2.5 µM; in assay [2] it was 0.32 µM; in assay [3], 1.75 µM. The figures for the half-maximal inhibitory concentration (IC50) (in the assay with HUVEC; in the assay on HT29; in [4]) were less than 2.5 µM, less than 2.5 µM and 0.68 µM, respectively.

Regarding `CCOc1nc2oc(C)cc2nc1NC(=O)N1CCN(c2cc(C)cc(C)c2)CC1` [Example 35, 4-(3,5-Dimethylphenyl)-N-(3-ethoxy-6-methylfuro[2,3-b]pyrazin-2-yl)piperazine-1-carboxamide], the IC50 is 1.02 µM with A549; 0.43 µM in assay [1]; less than 2.5 µM in the assay with SK-OV-3; 1.12 µM with HEK293; 0.24 µM in assay [2]; 0.44 µM in assay [3]. In addition, the IC50 in the assay on HUVEC was less than 2.5 µM; with HT29, less than 2.5 µM; in [4] it was 0.54 µM.

For `COc1nc2oc(Cl)cc2nc1NC(=O)N1CCN(c2cc(C)cc(F)c2)CC1` [Example 46, N-(6-Chloro-3-methoxyfuro[2,3-b]pyrazin-2-yl)-4-(3-fluoro-5-methylphenyl)piperazine-1-carboxamide], the IC50 is less than 2.5 µM in the assay on A549; 1.94 µM in assay [1]; less than 2.5 µM in the assay with SK-OV-3; less than 2.5 µM in the assay on HEK293; 1.68 µM in assay [2]; 1.83 µM in assay [3]. For the same compound, the IC50 in the assay with HUVEC was less than 2.5 µM; in the assay on HT29, less than 2.5 µM; in assay [4], 1.35 µM.

Turning to `CCOc1nc2oc(Cl)cc2nc1NC(=O)N1CCN(c2cc(C)cc(OC)c2)CC1` [Example 52, N-(6-Chloro-3-ethoxyfuro[2,3-b]pyrazin-2-yl)-4-(3-methoxy-5-methylphenyl)piperazine-1-carboxamide], the IC50 in the assay on A549 is 1.87 µM; in assay [1] it was 1.68 µM; in the assay on SK-OV-3, less than 2.5 µM; in the assay with HEK293, 1.74 µM; in assay [2] it was 1.18 µM; in assay [3], 1.36 µM. Further, the IC50 in the assay on HUVEC was 1.62 µM; with HT29 it was less than 2.5 µM; in assay [4], 0.68 µM.

For `COc1nc2oc(C)cc2nc1NC(=O)N1CCN(c2cc(F)cc(F)c2)CC1` [Example 27, 4-(3,5-Difluorophenyl)-N-(3-methoxy-6-methylfuro[2,3-b]pyrazin-2-yl)piperazine-1-carboxamide], the IC50 in the assay on A549 is less than 2.5 µM; in [1], less than 2.5 µM; in the assay with SK-OV-3 it was less than 2.5 µM; in the assay on HEK293 it was less than 2.5 µM; in [2], 0.56 µM; in assay [3] it was less than 2.5 µM. In addition, the IC50 with HUVEC is less than 2.5 µM; in the assay on HT29, less than 2.5 µM; in [4], 1.13 µM.

Turning to `COc1nc2oc(C)cc2nc1NC(=O)N1CCN(c2cc(F)cc(C(F)(F)F)c2)CC1` [Example 28, 4-(3-Fluoro-5-(trifluoromethyl)phenyl)-N-(3-methoxy-6-methylfuro[2,3-b]pyrazin-2-yl)piperazine-1-carboxamide], the IC50 (in the assay with A549; in [1]; in the assay on SK-OV-3; with HEK293; in [2]; in [3]) was less than 2.5 µM throughout. In addition, the IC50 (in the assay on HUVEC; in the assay with HT29; in [4]) was less than 2.5 µM each time.

Take `COc1cc(OC)cc(N2CCN(C(=O)Nc3nc4ccoc4nc3OC)CC2)c1` [Example 1, 4-(3,5-Dimethoxyphenyl)-N-(3-methoxyfuro[2,3-b]pyrazin-2-yl)piperazine-1-carboxamide]: the IC50 was 1.13 µM with A549; 0.53 µM in assay [1]; 0.27 µM in the assay with SK-OV-3; 0.63 µM in the assay with HEK293; 0.12 µM in assay [2]; 0.27 µM in assay [3]. Moreover, the IC50 in the assay with HUVEC came out at 0.12 µM; in the assay with HT29, 0.31 µM; in [4], 0.03 µM.

In the case of `COc1nc2oc(C)cc2nc1NC(=O)N1CCN(c2cc(C)cc(C)c2)CC1` [Example 25, 4-(3,5-Dimethylphenyl)-N-(3-methoxy-6-methylfuro[2,3-b]pyrazin-2-yl)piperazine-1-carboxamide], the IC50 was 0.22 µM in the assay with A549; 0.08 µM in assay [1]; 0.63 µM in the assay with SK-OV-3; 0.36 µM in the assay on HEK293; 0.15 µM in assay [2]; 0.17 µM in [3]. Also, the values for the IC50 (with HUVEC; in the assay on HT29; in assay [4]) were 0.13 µM, 0.25 µM and less than 2.5 µM, respectively.

Consider `COc1cc(C)cc(N2CCN(C(=O)Nc3nc4cc(Cl)oc4nc3OC)CC2)c1` [Example 42, N-(6-Chloro-3-methoxyfuro[2,3-b]pyrazin-2-yl)-4-(3-methoxy-5-methylphenyl)piperazine-1-carboxamide], for which the IC50 with A549 was 1.87 µM; in assay [1], 1.23 µM; in the assay with SK-OV-3, less than 2.5 µM; in the assay with HEK293, 1.37 µM; in [2] it was 0.36 µM; in [3], 1.68 µM. Besides, the 50% inhibitory concentration (IC50) in the assay with HUVEC was determined as 1.47 µM; in the assay on HT29, 1.87 µM; in assay [4], 1.68 µM.
